The values below are quoted from earlier work in patent publication US20160101140A1, “Method for Processing Rosaceous Kernels” (priority 2014, published 2016).

The data set concerns tumors. Conditions: finding of Sugiura.

Turning to `N#C[C@H](O[C@@H]1O[C@H](CO[C@@H]2O[C@H](CO)[C@@H](O)[C@H](O)[C@H]2O)[C@@H](O)[C@H](O)[C@H]1O)c1ccccc1` [Vit B17, amygdalin], the “occurrence of a cancer” value is “can inhibit an occurrence of a cancer” and the “pain caused by the cancer” value is reported as “can lessen the pain caused by the cancer”. Also, under “background section”, the anti-cancer activity result is recorded as “had anti-cancer activity”. Also, the “inhibition of secondary tumors” value (mice) is reported as “inhibited secondary tumors in mice”.
